What was measured:
[1] = test system: Western diet fed Sprague Dawley rats; experiment: Hepatic triglyceride (steatosis), Western diet fed rats; format: in vivo, rat; conditions: oral, Day 28
Procedure: A randomized, vehicle-controlled, 8-parallel arm study was conducted in male Sprague-Dawley rats (Charles River (Boston, MA)) to obtain circulating and hepatic TG levels. Standard laboratory conditions were used to house 96 rats (˜200 g); they were double housed and kept under 12:12-hour reverse light-dark schedule (lights off at 8:00 AM). Rats were randomized into chow or Western diet groups and dose groups upon arrival and were given a 14-day lead-in period on either standard rat chow or Western diet prior to the start of the study. Standard Laboratory Rodent chow diet, 5053, was from LabDiet (PMI, St Louis, Missouri). Western Diet, D12079Bi, was from Research Diets (New Brunswick, New Jersey).
Starting on Day 1 of the study, rats were dosed orally (10 mL/kg) with either vehicle control (0.5% MC (wt/volume %) in dionized water), low or high doses of Compound A (1 mg/kg or 10 mg/kg QD, respectively), low or high doses of Compound D (5 mg/kg or 30 mg/kg BID respectively), or co-administration of low doses (Compound A at 1 mg/kg QD and Compound D at 5 mg/kg BID), or co-administration of high doses (Compound A at 10 mg/kg QD and Compound D at 30 mg/kg BID)
On the last day of the study (Day 28), rats were sacrificed for tissue collection after a 4 hour fast, 2 hours post-dose: two hours post-dose, blood for determining plasma analytes was collected via lateral tail vein and then the animals were sacrificed by CO2 asphyxiation. Blood was transferred to BD Microtainer tubes coated with K2EDTA (PN365974), centrifuged at 4° C. and the plasma transferred to a 96-well microtitre plate and stored at −20° C. Livers were rapidly removed, freeze-clamped in a Wollenberg clamp pre-cooled in liquid N2 individually wrapped in aluminum foil and subsequently stored at −80° C.
Tissue pulverization: Frozen livers were rapidly pulverized on an aluminum block cooled in liquid N2, ensuring the tissue remained frozen throughout the pulverization. The pulverized tissues were transferred and stored in 7 mL polypropylene conical tubes at −80° C. until analysis.
Extraction for hepatic triglyceride: Approximately 50 to 100 mg of pulverized tissue was added to a 2 mL lysing matrix D tube (MP Bio) containing 800 μL ice cold 1:1 CHCl3:MEOH. Samples were immediately extracted at 4° C. using Qiagen Tissue Lyser II (Qiagen Cat No. 85300) for 4 minutes at 30 Hz. The homogenate was then transferred to 13×100 mm glass tubes and placed on ice. The lysis tubes were then rinsed with 800 μL of 1:1 CHCl3:MeOH, vortexed for 30 seconds and added to the 13×100 mm glass tubes. While on ice, 2.4 ml of 100% CHCl3 was added to all glass vials to bring the ratio of CHCl3:MeOH to 4:2. Samples were then placed in the −20° C. freezer overnight. […]

[2] = test system: alpha smooth muscle actin (αSMA); experiment: Hepatic αSMA immunohistochemistry, CDAHFD fed rats; format: in vivo, rat; conditions: twice daily for 6 weeks; Compound A 5 mg/kg, Compound D 30 mg/kg, or co-administration; 12 weeks on CDAHFD
Procedure: A randomized, vehicle-controlled, 5-parallel arm study was conducted in male Wistar-Han rats (Charles River (Boston, MA)) fed a choline-deficient and high fat diet (CDAHFD) (Research diets; A16092003) to identify differences in improvements in markers of hepatic inflammation and fibrosis when administering either Compound A or Compound D alone as monotherapy or in combination. Standard laboratory conditions were used to house 60 rats (˜200 g); they were double housed and kept under 12:12-hour reverse light-dark schedule (lights off at 8:00 AM). Rats were fed choline deficient and high fat diet (CDAHFD) beginning 6-weeks prior to initiation of the study. Rats, randomized into 4 dosing groups (n=12/group), received twice daily administration of vehicle, Compound A (5 mg/kg) monotherapy, Compound D (30 mg/kg) monotherapy, or co-administration Compound A (5 mg/kg) and Compound D (30 mg/kg) for a period of 6-weeks. […] Histology was assessed following 6-weeks of drug administration which corresponded to 12 weeks on the CDAHFD. […]
Following the 12-weeks on CDAHFD, the animals were sacrificed by CO2 asphyxiation. […] A portion of the pulverized liver sample from each animal was processed and analyzed for gene expression markers of fibrogenesis. Rat taqman probes against […]SMA and COL1A1 were all assessed using Actb as housekeeping gene on qPCR. […]

[3] = high dose (Compound A 10 mg/kg QD; Compound D 30 mg/kg BID; or both co-administered)
[4] = low dose (Compound A 1 mg/kg QD; Compound D 5 mg/kg BID; or both co-administered)

SMILES	reduction in steatosis (hepatic triglyceride), relative to vehicle administered Western diet fed rats [1, 3]	reduction in steatosis (hepatic triglyceride), relative to vehicle administered Western diet fed rats [1, 4]	reduction of liver αSMA staining [2]
COc1cc(C(=O)N2CCC3(CC2)CC(=O)c2c(cnn2C(C)C)C3)cc(-c2ccc(C(=O)O)cc2)n1 [Compound A, 4-(4-(1-isopropyl-7-oxo-1,4,6,7-tetrahydrospiro[indazole-5,4′-piperidine]-1′-carbonyl)-6-methoxypyridin-2-yl)benzoic acid]	53%	36%	41%
CCOc1cccnc1Oc1cncc(-c2ncc(C(=O)N[C@H]3CCOC3)cn2)c1 [Compound D, (S)-2-(5-((3-ethoxypyridin-2-yl)oxy)pyridin-3-yl)-N-(tetrahydrofuran-3-yl)pyrimidine-5-carboxamide]	30%	25%	23%
